The source of these data is patent publication US20030109523A1, “Bicyclic antagonists selective for the alphavbeta3 integrin” (Wyeth, priority 1999, published 2003).

Marks after values point to notes of the source that are not given here.

By inhibition is commonly meant the drop in the measured response relative to a control, in per cent. As usually defined, the melting point is the temperature of the solid-liquid transition. What is called IC50 is the concentration needed to halve the response being measured.

The target in one data set is T1, αVβ3 integrin (Homo sapiens, UniProt P05106+P06756).
T1 construct: αVβ3-expressing cell lines are maintained by standard tissue culture techniques; endogenous in cells; host or cells: αVβ3-expressing cell lines
The experiment in a line: Osteopontin-αVβ3 Cell Attachment Test Procedure. Particulars: for remaining activity at 20 µM / remaining activity at 100 µM: % of maximal attachment, read-out: (αVβ3) CELL ATTACHMENT, % @ concentration; for IC50: attachment of cells to osteopontin, read-out: (αVβ3) IC50 CELL ATTACHMENT
The class given is cell-based. A digest of the protocol: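 Cells expressing αVβ3 (10^6 cells/mL) added with test compound to osteopontin-coated, 1% BSA-blocked wells in triplicate; 1.5 h at 25° C. Attached cells quantified by MTT dye conversion (overnight, 37° C.); optical density expressed as % of maximal attachment minus uncoated-well background, mean ±SD.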

For another data set, the system named is osteoclasts. The experiment in a line: Osteoclast Bone Pitting. It is filed as cell-based, rat. The method in brief: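 Osteoclasts on bone slices at an acidic pH promoting resorption; slices fixed, osteoclasts counted after TRAP staining, cells stripped by sonication in 0.25M NH4OH and toluidine blue-stained pits counted manually. Block design, three replicate slices per treatment per animal; IC50 from dose-response curves.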

The target in data set [1] is T2, Vitronectin Receptor (αVβ3) (Homo sapiens, UniProt P05106+P06756).
T2 construct: expressed in transfected cells; host or cells: 512P5 cells (plasma membrane preparation)
The experiment in a line: Vitronectin Receptor (αVβ3) Binding Test Procedure. As to conditions: for remaining activity at 30 µM: % Max = percentage of the specific binding, read-out: (αVβ3) RECEPTOR BINDING, % @ concentration; for IC50: read-out: (αVβ3) IC50 RECEPTOR BINDING.

For the next data set, the target named is T3, αIIbβ3 integrin (Homo sapiens, UniProt P05106+P08514).
T3 construct: Human Platelets: Platelet-enriched plasma was obtained commercially from a donor pool; from tissue; host or cells: human platelet-rich plasma from a commercial donor pool
The experiment in a line: ADP-Induced Platelet Aggregation. The class given is cell-based. As to conditions: Table VII; for remaining activity at 200 µM: percent of maximal aggregation; for IC50: ADP 20 uM, human platelets, read-out: Platelet Aggregation αIIbβ3 IC50. The method in brief:
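Pooled human PRP ([…]) preincubated with compound (1% vehicle) 5 min at 37° C with stirring, then stimulated with 20 uM ADP. Light transmittance followed 5 min against PPP reference; maximal aggregation expressed as % of vehicle control, mean ± SD.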

Data set [2] deals with thyro-parathyroidectomized (TPTX) rats. The experiment in a line: PTH-induced Hypercalcemia of Thyro-parathyroidectomized Male Rats. It is filed as in vivo, rat. As to conditions: for Change in Serum Calcium after 3 hours / Change in Serum Calcium after 6 hours: Table V, TPTX male rats, rPTH(1-34) 0.45 μg/kg/hr, Example 37 100 mg/kg, s.c. The source says:
Effects of Test Compounds on PTH-induced Hypercalcemia of Thyro-parathyroidectomized Male Rats. Male thyro-parathyroidectomized (TPTX) rats (Charles River) were randomly assigned to groups of 7 rats/group. […] For evaluation of prophylactic effects of a test drug, another minipump with appropriate concentration of the test drug solution was implanted subcutaneously at a site away from PTH minipump or implanted as a pellet of the test compound away from the PTH minipump. Alternatively, test drugs were administered by oral gavage as a solution or uniform suspension in an appropriate medium depending on the physical properties of the test compound. A group of 7 unimplanted TPTX rats was set aside as a normal control group.

T2 sequence (P06756 31-889 limits assumed): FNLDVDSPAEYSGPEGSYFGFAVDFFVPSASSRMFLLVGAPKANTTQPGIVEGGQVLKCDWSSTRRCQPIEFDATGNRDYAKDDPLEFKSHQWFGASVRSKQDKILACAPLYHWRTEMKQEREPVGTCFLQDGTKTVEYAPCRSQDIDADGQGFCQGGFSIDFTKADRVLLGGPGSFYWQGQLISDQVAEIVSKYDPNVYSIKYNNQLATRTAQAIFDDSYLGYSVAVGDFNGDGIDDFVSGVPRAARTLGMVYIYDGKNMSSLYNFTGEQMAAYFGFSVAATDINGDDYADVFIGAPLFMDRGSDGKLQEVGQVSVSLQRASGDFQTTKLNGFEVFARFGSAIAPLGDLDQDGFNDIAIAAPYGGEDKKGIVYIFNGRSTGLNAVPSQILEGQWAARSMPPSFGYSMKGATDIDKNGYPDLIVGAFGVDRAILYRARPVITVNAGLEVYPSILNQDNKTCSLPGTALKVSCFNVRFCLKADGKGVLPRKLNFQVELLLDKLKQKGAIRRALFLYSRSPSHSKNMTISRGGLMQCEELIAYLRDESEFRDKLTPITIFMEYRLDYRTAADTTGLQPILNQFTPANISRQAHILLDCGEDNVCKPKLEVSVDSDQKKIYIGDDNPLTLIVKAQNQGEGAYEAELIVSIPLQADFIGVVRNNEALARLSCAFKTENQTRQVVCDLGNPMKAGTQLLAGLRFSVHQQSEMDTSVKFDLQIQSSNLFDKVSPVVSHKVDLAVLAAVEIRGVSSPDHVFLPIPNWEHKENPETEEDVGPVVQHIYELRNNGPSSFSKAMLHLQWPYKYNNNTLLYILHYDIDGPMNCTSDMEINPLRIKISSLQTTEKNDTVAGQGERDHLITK
T2 sequence (P06756 891-1048 partner limits assumed): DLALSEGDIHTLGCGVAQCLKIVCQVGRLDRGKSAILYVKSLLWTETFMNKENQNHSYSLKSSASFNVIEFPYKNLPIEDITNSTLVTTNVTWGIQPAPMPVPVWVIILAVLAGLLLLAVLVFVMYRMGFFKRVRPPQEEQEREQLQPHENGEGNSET
T2 sequence (P05106 27-788): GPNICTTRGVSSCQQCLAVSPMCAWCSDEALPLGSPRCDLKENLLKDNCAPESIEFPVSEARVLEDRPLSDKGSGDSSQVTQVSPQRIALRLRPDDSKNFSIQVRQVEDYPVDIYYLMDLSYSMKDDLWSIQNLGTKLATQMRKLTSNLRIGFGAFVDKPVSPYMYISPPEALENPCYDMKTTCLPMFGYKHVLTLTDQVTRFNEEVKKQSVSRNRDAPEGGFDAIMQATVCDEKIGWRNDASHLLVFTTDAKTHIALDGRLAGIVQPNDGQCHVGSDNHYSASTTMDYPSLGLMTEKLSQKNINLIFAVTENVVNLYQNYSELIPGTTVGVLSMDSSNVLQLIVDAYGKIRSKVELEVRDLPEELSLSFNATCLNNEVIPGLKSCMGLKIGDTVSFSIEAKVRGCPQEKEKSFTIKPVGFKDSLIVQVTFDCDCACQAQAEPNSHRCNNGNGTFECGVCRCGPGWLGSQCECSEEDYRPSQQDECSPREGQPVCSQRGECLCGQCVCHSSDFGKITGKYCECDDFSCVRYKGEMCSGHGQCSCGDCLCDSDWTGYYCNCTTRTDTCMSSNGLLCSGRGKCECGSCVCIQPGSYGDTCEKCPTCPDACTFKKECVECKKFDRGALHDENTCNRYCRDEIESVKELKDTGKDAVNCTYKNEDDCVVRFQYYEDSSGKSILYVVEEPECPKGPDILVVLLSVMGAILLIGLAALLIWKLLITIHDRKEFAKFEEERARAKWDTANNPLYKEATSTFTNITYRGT
T1 sequence (P06756 31-889 limits assumed): as the sequence (P06756 31-889 limits assumed) above
T1 sequence (P06756 891-1048 partner limits assumed): as the sequence (P06756 891-1048 partner limits assumed) above
T1 sequence (P05106 27-788): as the sequence (P05106 27-788) above
T3 sequence (P08514 32-887 limits assumed): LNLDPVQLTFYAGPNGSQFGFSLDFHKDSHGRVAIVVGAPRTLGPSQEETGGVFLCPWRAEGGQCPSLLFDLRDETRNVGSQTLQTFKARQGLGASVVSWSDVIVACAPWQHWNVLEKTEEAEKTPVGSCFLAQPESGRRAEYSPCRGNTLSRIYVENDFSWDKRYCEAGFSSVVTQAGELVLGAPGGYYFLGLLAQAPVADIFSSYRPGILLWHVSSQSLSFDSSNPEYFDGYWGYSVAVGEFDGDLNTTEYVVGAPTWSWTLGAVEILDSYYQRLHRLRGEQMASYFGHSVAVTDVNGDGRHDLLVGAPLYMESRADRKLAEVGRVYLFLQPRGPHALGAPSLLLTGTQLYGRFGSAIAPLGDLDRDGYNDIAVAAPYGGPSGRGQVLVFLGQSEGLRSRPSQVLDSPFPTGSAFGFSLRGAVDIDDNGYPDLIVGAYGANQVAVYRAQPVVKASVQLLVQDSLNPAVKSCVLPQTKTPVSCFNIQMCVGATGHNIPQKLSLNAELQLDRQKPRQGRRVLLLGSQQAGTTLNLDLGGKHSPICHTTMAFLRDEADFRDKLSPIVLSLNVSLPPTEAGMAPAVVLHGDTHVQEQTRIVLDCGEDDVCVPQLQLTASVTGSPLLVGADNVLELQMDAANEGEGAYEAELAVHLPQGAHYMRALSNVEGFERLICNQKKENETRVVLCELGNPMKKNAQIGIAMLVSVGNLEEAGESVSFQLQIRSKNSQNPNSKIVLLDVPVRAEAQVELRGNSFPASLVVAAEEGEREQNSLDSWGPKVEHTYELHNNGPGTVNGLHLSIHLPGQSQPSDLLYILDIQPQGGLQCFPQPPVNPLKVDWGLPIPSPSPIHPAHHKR
T3 sequence (P08514 891-1039 partner limits assumed): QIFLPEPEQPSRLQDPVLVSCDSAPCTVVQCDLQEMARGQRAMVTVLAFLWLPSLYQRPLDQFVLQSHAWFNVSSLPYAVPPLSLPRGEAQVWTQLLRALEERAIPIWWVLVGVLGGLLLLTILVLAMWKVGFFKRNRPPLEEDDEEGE
T3 sequence (P05106 27-788): as the sequence (P05106 27-788) above

In turn, `Cl.N=C(N)NCCCCOc1ccc2cc(CC(=O)O)c(=O)[nH]c2c1` [Example 184, [7-(4-Guanidino-butoxy)-2-oxo-1,2-dihydro-quinolin-3-yl]-acetic Acid Hydrochloride] yielded a melting point of 216.5 to 219 °C. Besides, on αVβ3 integrin, the remaining activity at 20 µM turned out to be 108% and the remaining activity at 100 µM was found to be 85%. Also, in the data set with osteoclasts (Rattus norvegicus, Osteoclast, @ 271 μM), the inhibition at 271 µM was 37%. Besides, in data set [1], the remaining activity at 30 µM was 67.5%. Further, on αIIbβ3 integrin, the remaining activity at 200 µM came out at 85.5%.
Compound `N=C(N)NCCCCCc1ccc2c(c1)NC(=O)C(CC(=O)O)C2.O=C(O)C(F)(F)F` (stereo not shown) [Example 122, [7-(5-Guanidino-pentyl)-2-oxo-1,2,3,4-tetrahydro-quinolin-3-yl]-acetic Acid Trifluoroacetate] yielded a melting point of 148 to 151 °C. Besides, the IC50 on αVβ3 integrin stood at 8.3 µM. The IC50 in the data set with osteoclasts (Rattus norvegicus, Osteoclast, read-out: BONE PITTING INHIBITION IC50) is 159 µM. Also, the IC50 in data set [1] was 3.6 µM. Also, at αIIbβ3 integrin, the IC50 worked out at 57 µM.
Compound `N=C(N)NCCCCOc1cccc2c1NC(=O)C(CC(=O)O)C2` (stereo not shown) [Example 235, [8-(4-Guanidino-butoxy)-2-oxo-1,2,3,4-tetrahydro-quinolin-3-yl]-acetic Acid] gave a melting point of 207 to 210 °C. Further, the remaining activity at 100 µM at αVβ3 integrin is 91%. Besides, the inhibition at 221 µM with osteoclasts (Rattus norvegicus, Osteoclast, @ 221 μM) was -50%. For the same compound, the remaining activity at 30 µM in data set [1] turned out to be 100%. In addition, the remaining activity at 200 µM at αIIbβ3 integrin turned out to be 81.1%.
Take `N=C(N)NCCCCOc1ccc2c(c1)CC(CCC(=O)O)C(=O)N2` (stereo not shown) [Example 224, 3-[6-(4-Guanidino-butoxy)-2-oxo-1,2,3,4-tetrahydro-quinolin-3-yl]-propionic Acid]: the melting point lay within 152 to 155 °C. Moreover, the remaining activity at 20 µM at αVβ3 integrin amounted to 100%. Further, the inhibition at 216 µM in the data set on osteoclasts (Rattus norvegicus, Osteoclast) is -62%. The remaining activity at 30 µM in data set [1] came out at 100%. In addition, the IC50 at αIIbβ3 integrin was 53 µM.
In the case of `N=C(N)NCCCCc1ccc2c(c1)NC(=O)C(CC(=O)O)C2.O=C(O)C(F)(F)F` (stereo not shown) [Example 121, [7-(4-Guanidino-butyl)-2-oxo-1,2,3,4-tetrahydro-quinolin-3-yl]-acetic Acid Trifluoroacetate], the melting point was in the range of 157 to 160 °C. At αVβ3 integrin, the IC50 was 15.1 µM. Besides, in the data set on osteoclasts (Rattus norvegicus, Osteoclast, @ 228 μM), the inhibition at 228 µM was found to be 30%. Further, in data set [1], the IC50 was 2.6 µM. Also, on αIIbβ3 integrin, the remaining activity at 200 µM came out at 62%.
For the compound `N=C(N)NCCCOc1ccc2c(c1)CC(CCC(=O)O)C(=O)N2` (stereo not shown) [Example 223, 3-[6-(3-Guanidino-propoxy)-2-oxo-1,2,3,4-tetrahydro-quinolin-3-yl]-propionic Acid], the melting point is 168 to 172 °C. On αVβ3 integrin, the remaining activity at 20 µM amounted to 104% and the remaining activity at 100 µM came out at 108%. Also, in the data set with osteoclasts (Rattus norvegicus, Osteoclast, @ 226 μM), the inhibition at 226 µM was -72%. For the same compound, the remaining activity at 30 µM in data set [1] stood at 100%. Also, the IC50 on αIIbβ3 integrin was 54 µM.
`N=C(N)NCCCCOc1ccc2c(c1)NC(=O)C(CC(=O)O)C2.O=C(O)C(F)(F)F` (stereo not shown) [Example 84, [7-(4-Guanidino-butoxy)-2-oxo-1,2,3,4-tetrahydro-quinolin-3-yl]-acetic Acid Trifluoroacetate] displayed a melting point of 189 to 191 °C. Besides, the concentration for half-maximal inhibition (IC50) on αVβ3 integrin was found to be 24.5 µM. For the same compound, the inhibition at 223 µM in the data set with osteoclasts (Rattus norvegicus, Osteoclast, @ 223 μM) amounted to 57%. Further, the IC50 in data set [1] came out at 11.4 µM. Besides, the remaining activity at 200 µM at αIIbβ3 integrin was 62%.
On to `N=C(N)NCCCOc1ccc2c(c1)CCC(CC(=O)O)C2.O=C(O)C(F)(F)F` (stereo not shown) [Example 37, [6-(3-Guanidino-propoxy)-1,2,3,4-tetrahydro-napthalen-2-yl]-acetic Acid Trifluoroacetate], for which the IC50 at αVβ3 integrin was 8.9 µM; in data set [1], 2.9 µM; at αIIbβ3 integrin, 82.4 µM. Also, the “Change in Serum Calcium after 3 hours” value in data set [2] (1st column pair) is 1.72 mg/dL; in data set [2] (2nd column pair) it was 0.97 mg/dL; in data set [2] (3rd column pair), 0.95 mg/dL; in data set [2] (4th column pair) it was 1.31 mg/dL. Further, the “Change in Serum Calcium after 6 hours” value in data set [2] (1st column pair) is 2.22 mg/dL; in data set [2] (2nd column pair), 2.21 mg/dL; in data set [2] (3rd column pair) it was 1.80 mg/dL; in data set [2] (4th column pair), 1.63 mg/dL. Also, the “BONE PITTING INHIBITION” value in the data set on osteoclasts (@ 238 μM) worked out at 30% @ 238.
On to `N=C(N)NCCCCOc1ccc2c(c1)NC(=O)C(CCC(=O)O)C2` (stereo not shown) [Example 232, 3-[7-(4-Guanidino-butoxy)-2-oxo-1,2,3,4-tetrahydro-quinolin-3-yl]-propionic Acid], for which the melting point was 176 to 177 °C. Moreover, the remaining activity at 100 µM at αVβ3 integrin was found to be 97%. Further, the inhibition at 216 µM in the data set on osteoclasts (Rattus norvegicus, Osteoclast) is -70%. Further, the remaining activity at 30 µM in data set [1] was found to be 75.3%. In addition, the IC50 at αIIbβ3 integrin came out at 155 µM.
Cyclo(-Arg-Gly-Asp-D-Phe-Val): the “Change in Serum Calcium (mg/dL)” value in data set [2] (Table III, TPTX rat, 100 mg/kg.sc) is on record as −0.90 + 0.28 mg/dL. The “Change in Serum Calcium after 3 hours” value in data set [2] (1st column pair) is 0.69 mg/dL; in data set [2] (2nd column pair) it was 0.58** mg/dl; in data set [2] (3rd column pair), 0.01** mg/dl; in data set [2] (4th column pair), 0.51** mg/dl. For the same compound, the “Change in Serum Calcium after 6 hours” value in data set [2] (1st column pair) was 1.20* mg/dl; in data set [2] (2nd column pair), 1.44* mg/dl; in data set [2] (3rd column pair) it was 0.63 mg/dL; in data set [2] (4th column pair), 1.07 mg/dL.
As to `N=C(N)NCCCOc1ccc2c(c1)N(Cc1ccccc1)C(=O)C(CC(=O)O)C2` (stereo not shown) [Example 172, [1-Benzyl-7-(3-guanidino-propoxy)-2-oxo-1,2,3,4-tetrahydro-quinolin-3-yl]-acetic Acid], the melting point was 172 to 173 °C. In addition, the 50% inhibitory concentration (IC50) at αVβ3 integrin was 27.3 µM. Besides, the inhibition at 190 µM with osteoclasts (Rattus norvegicus, Osteoclast, @ 190 μM) came to 15%. The IC50 in data set [1] was 2.7 µM. The remaining activity at 200 µM at αIIbβ3 integrin was determined as 71.5%.
`Cl.N=C(N)NCCCOc1ccc2c(c1)NC(=O)C(CC(=O)O)C2` (stereo not shown) [Example 86, [7-(3-Guanidino-propoxy)-2-oxo-1,2,3,4-tetrahydro-quinolin-3-yl]-acetic Acid Hydrochloride] came in with a melting point of 227 to 229 °C. Further, the IC50 on αVβ3 integrin worked out at 21.1 µM. For the same compound, in the data set on osteoclasts (Rattus norvegicus, Osteoclast, @ 280 μM), the inhibition at 280 µM was 70%. The IC50 in data set [1] turned out to be 7.3 µM. Further, the remaining activity at 200 µM at αIIbβ3 integrin turned out to be 80.9%.
